According to patent US12595230B2, “Substituted 6,7-dihydro-5H-benzo[7]annulene compounds and their derivatives, processes for their preparation and therapeutic uses thereof” (Sanofi, priority 2020, dated 2026):

Molecular target: T1, ERα (Homo sapiens, UniProt P03372)
T1 construct: host or cells: MCF7
T1 sequence (P03372 1-595): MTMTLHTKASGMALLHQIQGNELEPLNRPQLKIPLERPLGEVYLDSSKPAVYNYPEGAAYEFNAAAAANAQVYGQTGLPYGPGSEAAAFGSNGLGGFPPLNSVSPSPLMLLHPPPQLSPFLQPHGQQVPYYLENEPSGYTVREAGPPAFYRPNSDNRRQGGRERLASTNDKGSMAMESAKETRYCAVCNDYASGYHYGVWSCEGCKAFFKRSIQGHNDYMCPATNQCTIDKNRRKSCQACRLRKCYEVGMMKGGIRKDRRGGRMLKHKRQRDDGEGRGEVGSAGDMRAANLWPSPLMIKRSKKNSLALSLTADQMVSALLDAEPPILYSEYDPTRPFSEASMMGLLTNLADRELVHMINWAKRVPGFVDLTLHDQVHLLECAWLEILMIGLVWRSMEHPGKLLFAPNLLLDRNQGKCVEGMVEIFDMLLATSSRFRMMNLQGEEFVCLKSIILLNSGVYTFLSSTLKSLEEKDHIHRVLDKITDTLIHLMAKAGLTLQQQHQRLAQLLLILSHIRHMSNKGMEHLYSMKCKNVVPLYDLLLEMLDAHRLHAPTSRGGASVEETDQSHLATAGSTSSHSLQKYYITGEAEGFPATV
Assay: Estrogen receptor degradation activity: breast cancer cell ERα in cell western assay (MCF7 cells)
Format: cell-based
Details: for % Degradation At 0.3 μM: 4 hours, relative to fulvestrant 0.1 μM positive control; for DC50: 4 hours post compound addition, concentration which degrades 50% of the estrogen receptor, read-out: Degradation IC50
In short: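 Compounds were applied to MCF7 cells in stripped-serum, phenol red-free medium for 4 h at final 0.3–0.0000018 μM, with fulvestrant (0.1 μM) as control. Value: IC50 (nM) for 50% ERα degradation.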

| SMILES | % Degradation At 0.3 μM | DC50 |
| --- | --- | --- |
| CC1CCc2cc(C(=O)O)ccc2C(c2ccc(CC3CN(CCCF)C3)cc2)=C1c1ccc(Cl)cc1 (single isomer, unassigned) [Example 327, 8-(4-chlorophenyl)-9-(4-((1-(3-fluoropropyl)azetidin-3-yl)methyl)phenyl)-7-methyl-6,7-dihydro-5H-benzo[7]annulene-3-carboxylic acid] | 86% | 4.7 nM |
| O=C(O)c1ccc2c(c1)CCCC(c1ccc(Cl)cc1C(F)(F)F)=C2c1ccc(CC2(F)CN(CCCF)C2)cc1 [Example 237, 8-(4-chloro-2-(trifluoromethyl)phenyl)-9-(4-((3-fluoro-1-(3-fluoropropyl)azetidin-3-yl)methyl)phenyl)-6,7-dihydro-5H-benzo[7]annulene-3-carboxylic acid] | 88% | 5.8 nM |
| O=C(O)c1ccc2c(c1)CCCC(c1ccc(Cl)cc1Cl)=C2c1ccc(CC2CN(CCC(F)(F)F)C2)cc1 [Example 261, 8-(2,4-dichlorophenyl)-9-(4-((1-(3,3,3-trifluoropropyl)azetidin-3-yl)methyl)phenyl)-6,7-dihydro-5H-benzo[7]annulene-3-carboxylic acid] | 89% | 0.8 nM |
| O=C(O)c1ccc2c(c1)CCCC(c1cccc(CCO)c1)=C2c1ccc(CC2CN(CCCF)C2)cc1 [Example 319, 9-(4-((1-(3-fluoropropyl)azetidin-3-yl)methyl)phenyl)-8-(3-(2-hydroxyethyl)phenyl)-6,7-dihydro-5H-benzo[7]annulene-3-carboxylic acid] | 73% | 48 nM |
| O=C(O)c1ccc2c(c1)CCCC(C1CC3CCC(C3)C1)=C2c1ccc(CC2CN(CCCF)C2)cc1 (stereo not drawn) [Example 316, 8-(bicyclo[3.2.1]octan-3-yl)-9-(4-((1-(3-fluoropropyl)azetidin-3-yl)methyl)phenyl)-6,7-dihydro-5H-benzo[7]annulene-3-carboxylic acid] | 81% | 1.2 nM |
| O=C(O)c1ccc2c(c1)CCCC(c1ncc(Cl)cc1F)=C2c1ccc(CC2CN(CCCF)C2)cc1 [Example 219, 8-(5-chloro-3-fluoropyridin-2-yl)-9-(4-((1-(3-fluoropropyl)azetidin-3-yl)methyl)phenyl)-6,7-dihydro-5H-benzo[7]annulene-3-carboxylic acid] | 92% | 6.5 nM |
| COc1cc(C2=C(c3ccc(CC4CN(CCCF)C4)cc3)c3ccc(C(=O)O)cc3CCC2)ccn1 [Example 21, 9-(4-((1-(3-fluoropropyl)azetidin-3-yl)methyl)phenyl)-8-(2-methoxypyridin-4-yl)-6,7-dihydro-5H-benzo[7]annulene-3-carboxylic acid] | 89% | 2.1 nM |
| O=C(O)c1ccc2c(c1)CCCC(c1cccc(CO)c1)=C2c1ccc(CC2CN(CCCF)C2)cc1 [Example 320, 9-(4-((1-(3-fluoropropyl)azetidin-3-yl)methyl)phenyl)-8-(3-(hydroxymethyl)phenyl)-6,7-dihydro-5H-benzo[7]annulene-3-carboxylic acid] | 80% | 110 nM |
| O=C(O)c1cc2c(cc1Cl)C(c1ccc(CC3CN(CCCF)C3)cc1)=C(c1ccc(Cl)cc1Cl)CCC2 [Example 248, 2-chloro-8-(2,4-dichlorophenyl)-9-(4-((1-(3-fluoropropyl)azetidin-3-yl)methyl)phenyl)-6,7-dihydro-5H-benzo[7]annulene-3-carboxylic acid] | 90% | 2.2 nM |
| C[C@H]1CC[C@H](C2=C(c3ccc(CC4CN(CCCF)C4)cc3)c3ccc(C(=O)O)cc3CCC2)CC1 [Example 15, 9-(4-((1-(3-fluoropropyl)azetidin-3-yl)methyl)phenyl)-8-((1r,4r)-4-methylcyclohexyl)-6,7-dihydro-5H-benzo[7]annulene-3-carboxylic acid] | 86% | 4 nM |
| CCC1CCc2cc(C(=O)O)ccc2C(c2ccc(CC3CN(CCCF)C3)cc2)=C1c1ccc(Cl)cc1 (single isomer, unassigned) [Example 329, 8-(4-chlorophenyl)-7-ethyl-9-(4-((1-(3-fluoropropyl)azetidin-3-yl)methyl)phenyl)-6,7-dihydro-5H-benzo[7]annulene-3-carboxylic acid] | 89% | 1.3 nM |

Stronger by DC50, values ahead:

| % Degradation At 0.3 μM | DC50 | SMILES |
| --- | --- | --- |
| 93% | 0.5 nM | Cl.O=C(O)c1ccc2c(c1)CCCC(c1ccc(F)c3c1CCC3)=C2c1ccc(CC2CN(CCCF)C2)cc1 [Example 55, 8-(7-fluoro-2,3-dihydro-1H-inden-4-yl)-9-(4-((1-(3-fluoropropyl)azetidin-3-yl)methyl)phenyl)-6,7-dihydro-5H-benzo[7]annulene-3-carboxylic acid hydrochloride] |
| 91% | 0.3 nM | O=C(O)c1ccc2c(c1)CCCC(c1ccc(Cl)cc1Cl)=C2c1ccc(CC2CN(CCCF)C2)cc1 [Example 2, 8-(2,4-dichlorophenyl)-9-(4-((1-(3-fluoropropyl)azetidin-3-yl)methyl)phenyl)-6,7-dihydro-5H-benzo[7]annulene-3-carboxylic Acid] |
| 91% | 0.7 nM | CC1CCc2cc(C(=O)O)ccc2C(c2ccc(CC3CN(CCCF)C3)cc2)=C1c1ccc(F)c(F)c1 (racemic) [Example 326, 8-(3,4-difluorophenyl)-9-(4-((1-(3-fluoropropyl)azetidin-3-yl)methyl)phenyl)-7-methyl-6,7-dihydro-5H-benzo[7]annulene-3-carboxylic acid] |
| 87% | 0.4 nM | O=C(O)c1ccc2c(c1)CCCC(c1cccc(Cl)c1C(F)(F)F)=C2c1ccc(CC2CN(CCC(F)(F)F)C2)cc1 [Example 259, 8-(3-chloro-2-(trifluoromethyl)phenyl)-9-(4-((1-(3,3,3-trifluoropropyl)azetidin-3-yl)methyl)phenyl)-6,7-dihydro-5H-benzo[7]annulene-3-carboxylic acid] |
| 88% | 0.4 nM | Cc1c(F)ccc(C2=C(c3ccc(CC4CN(CCCF)C4)cc3)c3ccc(C(=O)O)cc3CCC2C)c1C (racemic) [Example 309, 8-(4-fluoro-2,3-dimethylphenyl)-9-(4-((1-(3-fluoropropyl)azetidin-3-yl)methyl)phenyl)-7-methyl-6,7-dihydro-5H-benzo[7]annulene-3-carboxylic acid] |
| 88% | 0.3 nM | O=C(O)c1ccc2c(c1)CCCC(c1cccc(C(F)(F)F)c1Cl)=C2c1ccc(CC2CN(CCC(F)F)C2)cc1 [Example 286, 8-(2-chloro-3-(trifluoromethyl)phenyl)-9-(4-((1-(3,3-difluoropropyl)azetidin-3-yl)methyl)phenyl)-6,7-dihydro-5H-benzo[7]annulene-3-carboxylic acid] |
| 84% | 0.4 nM | O=C(O)c1ccc2c(c1)CCCC(C1CC3CCC1C3)=C2c1ccc(CC2CN(CCCF)C2)cc1 (mixture of isomers) [Example 307, 8-(bicyclo[2.2.1]heptan-2-yl)-9-(4-((1-(3-fluoropropyl)azetidin-3-yl)methyl)phenyl)-6,7-dihydro-5H-benzo[7]annulene-3-carboxylic acid] |
